The text below walks through data of article PMC10818746, “Inhibition of CYP1A1 Alleviates Colchicine-Induced Hepatotoxicity” (Toxins, 2024).

Holding throughout (assay type): in vitro ADME
What all share (conditions): colchicine 25 µM, NADPH 1 mM, CYP 2 pmol/mL, PBS pH 7.4; mean ± SD (n = 2)

One series deals with T1, CYP2B6 (Homo sapiens, UniProt P20813).
T1 construct: purchased Research Institute for Liver Diseases Co., Ltd. (Shanghai, China)
T1 sequence (P20813 1-491): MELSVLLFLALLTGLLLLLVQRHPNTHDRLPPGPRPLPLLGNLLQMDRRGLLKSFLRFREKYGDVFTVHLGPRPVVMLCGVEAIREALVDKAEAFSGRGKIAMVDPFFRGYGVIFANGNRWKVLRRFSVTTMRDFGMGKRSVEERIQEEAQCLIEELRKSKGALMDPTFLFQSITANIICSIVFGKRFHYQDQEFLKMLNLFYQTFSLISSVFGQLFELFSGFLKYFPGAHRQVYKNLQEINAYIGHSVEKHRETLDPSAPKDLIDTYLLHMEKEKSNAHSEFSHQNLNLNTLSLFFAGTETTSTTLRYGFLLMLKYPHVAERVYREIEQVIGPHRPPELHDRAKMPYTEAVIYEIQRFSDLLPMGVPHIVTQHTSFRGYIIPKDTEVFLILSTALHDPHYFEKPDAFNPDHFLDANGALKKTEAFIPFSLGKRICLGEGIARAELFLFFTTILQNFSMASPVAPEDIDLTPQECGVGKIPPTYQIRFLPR
Nature of the series: Colchicine metabolism by cDNA-expressed recombinant CYP2B6. How it is done: (§1) Pre-cooled acetonitrile was used to terminate the reaction, and then centrifugation (4 °C, 12,000 rpm, 20 min) was performed to obtain the sample.
(§2) All samples were analyzed as shown in [17] and are briefly described in Supporting Information. […]
(§3) Supplementary materials and methods
(§4) Reference numbers refer to the main text list
(§5) UHPLC‐Q exactive plus MS Analysis
(§6) All samples were analyzed on a liquid chromatography system including a Vanquish autosampler, Vanquish detector, Vanquish pump (Thremo Fisher Scientific, Santa Clara, CA). Samples were separated on an ACQUITY UPLC HSS T3 column (2.1×100 mm, […], Waters, USA). The injection volume: 5 μL, and the flow rate was 0.3 mL/min.
(§7) Phase A was H2O containing 0.01% formic acid, and phase B was acetonitrile containing 0.01% formic acid. The elution gradient was as follows: 0‐12 mi n, 2‐98% B; 12‐14 min, 2% A; 14‐16 min, 98% A. Other parameters are as follows: column temperature 45 ℃ , flow rate of collision gas and dry gas 9 L/min. Capillary voltage 3.5 kV, temperature 350 ℃ , atomizer pressure 35 psi. Vanquish UHPLC‐Q Exactive plus MS (Thermo Fisher, USA) was collected in both positive modes, operating in full scan mode with 60‐900 m/z. […]

A further series concerns the target T2, CYP2C19 (Homo sapiens, UniProt P33261).
T2 construct: purchased Research Institute for Liver Diseases Co., Ltd. (Shanghai, China)
Nature of the series: Colchicine metabolism by cDNA-expressed recombinant CYP2C19. How it is done: as §1, §2, §3, §4, §5, §6, §7

The target of a further series is T3, CYP2C8 (Homo sapiens, UniProt P10632).
T3 construct: purchased Research Institute for Liver Diseases Co., Ltd. (Shanghai, China)
T3 sequence (P10632 1-490): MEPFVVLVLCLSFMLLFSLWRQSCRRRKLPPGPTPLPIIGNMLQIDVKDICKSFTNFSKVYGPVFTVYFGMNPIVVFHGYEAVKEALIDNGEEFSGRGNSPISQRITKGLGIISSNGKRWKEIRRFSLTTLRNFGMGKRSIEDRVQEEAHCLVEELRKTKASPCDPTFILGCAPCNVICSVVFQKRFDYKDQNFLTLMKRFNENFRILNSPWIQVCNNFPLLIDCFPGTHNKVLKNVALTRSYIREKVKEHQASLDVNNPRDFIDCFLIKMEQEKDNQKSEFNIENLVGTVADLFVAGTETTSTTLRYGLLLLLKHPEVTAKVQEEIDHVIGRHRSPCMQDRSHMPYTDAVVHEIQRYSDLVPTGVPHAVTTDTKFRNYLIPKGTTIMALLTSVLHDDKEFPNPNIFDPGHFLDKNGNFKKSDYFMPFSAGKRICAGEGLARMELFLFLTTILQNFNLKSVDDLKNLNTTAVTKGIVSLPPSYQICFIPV
Nature of the series: Colchicine metabolism by cDNA-expressed recombinant CYP2C8. The procedure:
as §1, §2, §3, §4, §5, §6, §7

The target of a further series is T4, CYP2D6 (Homo sapiens, UniProt P10635).
T4 construct: purchased Research Institute for Liver Diseases Co., Ltd. (Shanghai, China)
In words: Colchicine metabolism by cDNA-expressed recombinant CYP2D6. The procedure: as §1, §2, §3, §4, §5, §6, §7

The next series concerns the target T5, CYP2E1 (Homo sapiens, UniProt P05181).
T5 construct: purchased Research Institute for Liver Diseases Co., Ltd. (Shanghai, China)
In words: Colchicine metabolism by cDNA-expressed recombinant CYP2E1. How it is done:
as §1, §2, §3, §4, §5, §6, §7

The target of a further series is T6, CYP3A4 (Homo sapiens, UniProt P08684).
T6 construct: purchased Research Institute for Liver Diseases Co., Ltd. (Shanghai, China)
In words: Colchicine metabolism by cDNA-expressed recombinant CYP3A4. How it is done: as §1, §2, §3, §4, §5, §6, §7

T4 sequence (P10635 whole entry): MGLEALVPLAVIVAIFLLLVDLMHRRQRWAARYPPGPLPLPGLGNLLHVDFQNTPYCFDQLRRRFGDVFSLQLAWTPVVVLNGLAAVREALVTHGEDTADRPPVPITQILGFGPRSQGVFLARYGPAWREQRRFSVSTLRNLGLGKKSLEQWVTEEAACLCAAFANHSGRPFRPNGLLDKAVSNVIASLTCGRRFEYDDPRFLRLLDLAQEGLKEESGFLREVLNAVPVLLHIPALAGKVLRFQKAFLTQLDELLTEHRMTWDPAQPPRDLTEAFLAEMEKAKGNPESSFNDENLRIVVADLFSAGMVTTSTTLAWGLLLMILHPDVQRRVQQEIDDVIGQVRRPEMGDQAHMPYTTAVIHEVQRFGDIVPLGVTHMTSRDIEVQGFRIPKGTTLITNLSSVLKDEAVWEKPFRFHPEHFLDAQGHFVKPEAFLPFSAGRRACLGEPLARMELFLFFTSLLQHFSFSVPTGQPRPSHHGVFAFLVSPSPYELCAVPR
T2 sequence (P33261 whole entry): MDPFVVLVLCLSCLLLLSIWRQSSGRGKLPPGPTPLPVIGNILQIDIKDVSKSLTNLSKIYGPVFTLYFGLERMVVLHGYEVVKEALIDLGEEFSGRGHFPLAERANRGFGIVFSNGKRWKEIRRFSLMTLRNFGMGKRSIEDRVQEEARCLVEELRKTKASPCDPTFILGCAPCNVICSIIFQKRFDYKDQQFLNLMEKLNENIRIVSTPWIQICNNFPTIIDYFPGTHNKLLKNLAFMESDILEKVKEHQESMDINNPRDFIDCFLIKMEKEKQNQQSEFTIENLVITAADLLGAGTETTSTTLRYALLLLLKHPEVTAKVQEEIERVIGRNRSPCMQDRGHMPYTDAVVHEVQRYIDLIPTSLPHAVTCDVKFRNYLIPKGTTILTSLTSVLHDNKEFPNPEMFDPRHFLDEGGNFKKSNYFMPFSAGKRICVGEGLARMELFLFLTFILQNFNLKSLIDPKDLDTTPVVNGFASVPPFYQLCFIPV
T5 sequence (P05181 whole entry): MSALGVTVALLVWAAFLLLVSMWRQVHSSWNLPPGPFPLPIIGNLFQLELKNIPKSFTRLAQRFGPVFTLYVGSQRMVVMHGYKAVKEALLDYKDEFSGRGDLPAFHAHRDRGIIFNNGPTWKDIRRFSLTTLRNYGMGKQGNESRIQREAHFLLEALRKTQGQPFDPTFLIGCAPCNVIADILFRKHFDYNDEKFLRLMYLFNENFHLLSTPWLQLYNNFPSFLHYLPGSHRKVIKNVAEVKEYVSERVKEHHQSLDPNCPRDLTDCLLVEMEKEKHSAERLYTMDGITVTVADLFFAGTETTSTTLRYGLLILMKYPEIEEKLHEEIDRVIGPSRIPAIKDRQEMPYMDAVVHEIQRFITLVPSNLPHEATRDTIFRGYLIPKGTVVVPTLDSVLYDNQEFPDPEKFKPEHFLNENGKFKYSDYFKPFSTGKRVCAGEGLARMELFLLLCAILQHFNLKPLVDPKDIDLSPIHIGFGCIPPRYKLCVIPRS
T6 sequence (P08684 whole entry): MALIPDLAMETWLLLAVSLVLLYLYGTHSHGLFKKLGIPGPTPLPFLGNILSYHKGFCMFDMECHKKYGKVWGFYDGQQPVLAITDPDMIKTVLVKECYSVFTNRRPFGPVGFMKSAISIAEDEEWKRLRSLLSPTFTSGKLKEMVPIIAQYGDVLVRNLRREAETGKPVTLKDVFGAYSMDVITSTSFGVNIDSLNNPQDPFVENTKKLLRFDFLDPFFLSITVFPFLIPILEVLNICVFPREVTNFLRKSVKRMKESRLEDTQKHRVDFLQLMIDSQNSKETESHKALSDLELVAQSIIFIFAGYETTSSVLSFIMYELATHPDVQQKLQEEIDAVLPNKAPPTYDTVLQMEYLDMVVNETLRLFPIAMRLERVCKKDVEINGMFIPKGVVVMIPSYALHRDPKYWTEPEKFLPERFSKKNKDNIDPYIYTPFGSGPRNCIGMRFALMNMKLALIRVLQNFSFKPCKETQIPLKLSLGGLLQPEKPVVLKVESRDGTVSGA

For the compound `COc1cc2c(c(OC)c1OC)-c1ccc(O)c(=O)cc1[C@@H](NC(C)=O)CC2` [M4], the “peak area of the metabolite after incubation with CYP2B6 as a percentage of the total peak areas from all the CYPs” value at CYP2B6 was 7.77 ± 0.57%. At CYP2C19, the “peak area of the metabolite after incubation with CYP2C19 as a percentage of the total peak areas from all the CYPs” value was 6.69 ± 1.91%. Also, at CYP2C8, the “peak area of the metabolite after incubation with CYP2C8 as a percentage of the total peak areas from all the CYPs” value came to 7.21 ± 0.40%. Besides, the “peak area of the metabolite after incubation with CYP2D6 as a percentage of the total peak areas from all the CYPs” value at CYP2D6 is given as 11.27 ± 3.15%. At CYP2E1, the “peak area of the metabolite after incubation with CYP2E1 as a percentage of the total peak areas from all the CYPs” value is recorded as 6.93 ± 0.40%. Moreover, at CYP3A4, the “peak area of the metabolite after incubation with CYP3A4 as a percentage of the total peak areas from all the CYPs” value came out at 12.18 ± 0.70%.

As for `COc1cc2c(c(OC)c1OC)-c1ccc(OC)c(=O)cc1C=CC2` [M6], at CYP2B6, the “peak area of the metabolite after incubation with CYP2B6 as a percentage of the total peak areas from all the CYPs” value was 9.86 ± 0.58%. The “peak area of the metabolite after incubation with CYP2C19 as a percentage of the total peak areas from all the CYPs” value at CYP2C19 is on record as 6.74 ± 0.36%. On CYP2C8, the “peak area of the metabolite after incubation with CYP2C8 as a percentage of the total peak areas from all the CYPs” value was found to be 6.90 ± 1.01%. The “peak area of the metabolite after incubation with CYP2D6 as a percentage of the total peak areas from all the CYPs” value on CYP2D6 stood at 7.59 ± 0.36%. Also, the “peak area of the metabolite after incubation with CYP2E1 as a percentage of the total peak areas from all the CYPs” value on CYP2E1 is 8.09 ± 0.37%. Besides, the “peak area of the metabolite after incubation with CYP3A4 as a percentage of the total peak areas from all the CYPs” value at CYP3A4 was found to be 6.55 ± 0.65%.

Regarding `COc1c(O)cc2c(c1O)-c1ccc(OC)c(=O)cc1[C@@H](NC(C)=O)CC2` [M8], at CYP2B6, the “peak area of the metabolite after incubation with CYP2B6 as a percentage of the total peak areas from all the CYPs” value was determined as 10.13 ± 3.38%. In addition, at CYP2C19, the “peak area of the metabolite after incubation with CYP2C19 as a percentage of the total peak areas from all the CYPs” value was determined as 7.66 ± 2.52%. The “peak area of the metabolite after incubation with CYP2C8 as a percentage of the total peak areas from all the CYPs” value at CYP2C8 came out at 8.61 ± 4.55%. In addition, the “peak area of the metabolite after incubation with CYP2E1 as a percentage of the total peak areas from all the CYPs” value at CYP2E1 came to 6.78 ± 0.72%. Moreover, at CYP3A4, the “peak area of the metabolite after incubation with CYP3A4 as a percentage of the total peak areas from all the CYPs” value was determined as 12.27 ± 1.54%.

With `COc1c(O)cc2c(c1OC)-c1ccc(OC)c(=O)cc1[C@@H](NC(C)=O)C=C2` [M5], the “peak area of the metabolite after incubation with CYP2B6 as a percentage of the total peak areas from all the CYPs” value on CYP2B6 was 7.86 ± 0.00%. The “peak area of the metabolite after incubation with CYP2C19 as a percentage of the total peak areas from all the CYPs” value on CYP2C19 was determined as 8.63 ± 1.05%. Also, the “peak area of the metabolite after incubation with CYP2C8 as a percentage of the total peak areas from all the CYPs” value at CYP2C8 is 7.37 ± 0.00%. In addition, the “peak area of the metabolite after incubation with CYP2D6 as a percentage of the total peak areas from all the CYPs” value at CYP2D6 is listed as 7.65 ± 11.17%. In addition, the “peak area of the metabolite after incubation with CYP2E1 as a percentage of the total peak areas from all the CYPs” value at CYP2E1 is recorded as 7.32 ± 0.00%. Besides, the “peak area of the metabolite after incubation with CYP3A4 as a percentage of the total peak areas from all the CYPs” value on CYP3A4 is 7.72 ± 15.62%.

For `COc1cc2c(c(OC)c1O)-c1ccc(OC)c(=O)cc1[C@@H](NC(C)=O)CC2` [M1], the “peak area of the metabolite after incubation with CYP2B6 as a percentage of the total peak areas from all the CYPs” value on CYP2B6 is listed as 6.90 ± 0.52%. Also, the “peak area of the metabolite after incubation with CYP2C19 as a percentage of the total peak areas from all the CYPs” value at CYP2C19 came to 8.35 ± 0.65%. Also, the “peak area of the metabolite after incubation with CYP2C8 as a percentage of the total peak areas from all the CYPs” value on CYP2C8 stood at 6.82 ± 0.03%. The “peak area of the metabolite after incubation with CYP2D6 as a percentage of the total peak areas from all the CYPs” value on CYP2D6 turned out to be 7.91 ± 0.60%. Moreover, at CYP2E1, the “peak area of the metabolite after incubation with CYP2E1 as a percentage of the total peak areas from all the CYPs” value is reported as 4.77 ± 2.02%. Further, the “peak area of the metabolite after incubation with CYP3A4 as a percentage of the total peak areas from all the CYPs” value at CYP3A4 was determined as 14.93 ± 1.41%.

On to `COc1cc2c(c(O)c1OC)-c1ccc(OC)c(=O)cc1[C@@H](NC(C)=O)CC2` [M2], for which, on CYP2B6, the “peak area of the metabolite after incubation with CYP2B6 as a percentage of the total peak areas from all the CYPs” value is 4.42 ± 0.21%. Also, the “peak area of the metabolite after incubation with CYP2C19 as a percentage of the total peak areas from all the CYPs” value on CYP2C19 is listed as 6.27 ± 0.30%. In addition, the “peak area of the metabolite after incubation with CYP2C8 as a percentage of the total peak areas from all the CYPs” value on CYP2C8 was determined as 3.69 ± 0.02%. Further, the “peak area of the metabolite after incubation with CYP2D6 as a percentage of the total peak areas from all the CYPs” value at CYP2D6 was 3.23 ± 0.56%. Also, the “peak area of the metabolite after incubation with CYP2E1 as a percentage of the total peak areas from all the CYPs” value on CYP2E1 amounted to 3.69 ± 0.51%. Also, on CYP3A4, the “peak area of the metabolite after incubation with CYP3A4 as a percentage of the total peak areas from all the CYPs” value is recorded as 47.73 ± 5.45%.
